Measurements published in ChEMBL document CHEMBL1201862, “PubChem BioAssay data set” (2004).
Active and inactive are the calls of the source.

Key:
[1] = target: T1, Protein skinhead-1 (Caenorhabditis elegans, UniProt P34707); assay type: functional
T1 sequence (P34707 whole entry): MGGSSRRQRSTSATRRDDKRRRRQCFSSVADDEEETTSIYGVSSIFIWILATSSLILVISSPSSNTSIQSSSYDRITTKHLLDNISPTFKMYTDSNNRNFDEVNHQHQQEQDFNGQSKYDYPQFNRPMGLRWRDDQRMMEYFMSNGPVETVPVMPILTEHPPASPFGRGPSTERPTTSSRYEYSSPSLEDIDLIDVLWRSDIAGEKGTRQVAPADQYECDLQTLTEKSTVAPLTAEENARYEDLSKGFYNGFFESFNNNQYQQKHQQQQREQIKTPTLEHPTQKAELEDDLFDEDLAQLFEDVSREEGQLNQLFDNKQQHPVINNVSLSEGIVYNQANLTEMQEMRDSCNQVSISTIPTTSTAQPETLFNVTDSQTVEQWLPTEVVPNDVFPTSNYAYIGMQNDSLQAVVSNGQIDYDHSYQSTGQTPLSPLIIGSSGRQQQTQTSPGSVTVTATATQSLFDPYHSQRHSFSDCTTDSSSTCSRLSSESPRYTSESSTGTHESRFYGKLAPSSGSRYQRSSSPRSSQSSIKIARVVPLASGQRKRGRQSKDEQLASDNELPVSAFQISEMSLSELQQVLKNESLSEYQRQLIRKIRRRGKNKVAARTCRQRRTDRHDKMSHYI

[2] = viability of uninfected HEp-2 cells – cell-based, HTS, cytotoxicity control for RSV inhibitor project, dose response (AID 2410); assay type: functional; conditions: human respiratory syncytial virus
[3] = target: Luciferin 4-monooxygenase (Photinus pyralis, UniProt P08659); experiment: inhibition of purified Photinus pyralis luciferase – biochemical, luminescence, dose response (AID 1891)
[4] = Luminescence Cell-Based Dose Confirmation HTS to Identify Inhibitors of Platelet Dense Granule Release. [Related pubchem assays: 1663 (Primary HTS), 1678 (Summary of Project)]; assay type: functional
[5] = Luminescence Cell-Based Dose Response HTS to Identify Activators of Luciferase Translation or Activity in H4 […] Cells. [Related pubchem assays: 1829 (Project Summary), 1814 (Primary HTS)]; assay type: functional
[6] = tested on: H4; experiment: Luminescence Cell-Based Dose Response HTS to Identify Activators of 5'UTR Stem-Loop Driven Prion Protein mRNA Translation in H4 Neuroglioblastoma Cells. [Related pubchem assays: 1829 (Project Summary), 1814 (Primary HTS)]; assay type: functional; conditions: Homo sapiens
[7] = target: Cytochrome P450 2C19 (Homo sapiens, UniProt P33261); experiment: Cytochrome panel assay with activity outcomes. Panel member name: p450-cyp2c19 Compounds with AC50 equal or less than 10 uM are considered active; assay type: functional; conditions: read-out: AC50
[8] = target: Cytochrome P450 3A4 (Homo sapiens, UniProt P08684);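 also: CYP3A4 tested as one member of a cytochrome P450 panel screen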
[9] = target: T2, Ubiquitin-conjugating enzyme E2 N (Homo sapiens, UniProt P61088); assay type: functional;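 also: Dose-response confirmation in a TR-FRET assay detecting UBC13-driven polyubiquitin chain formation, inhibition measured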
T2 sequence (P61088 whole entry): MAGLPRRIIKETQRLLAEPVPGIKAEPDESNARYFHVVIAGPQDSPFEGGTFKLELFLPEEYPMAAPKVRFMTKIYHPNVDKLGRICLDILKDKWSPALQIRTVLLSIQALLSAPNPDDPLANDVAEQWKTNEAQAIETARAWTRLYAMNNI

[10] = tested on: INS1; experiment: INS-1E survival protection against cytokine death – cell-based, luminescence, retest, dose response (AID 449756); assay type: functional; conditions: Rattus norvegicus;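 also: cell death triggered by IL-1 beta plus TNF-alpha plus IFN-gamma mixture; protective hits raise ATP signal compared with cytokine alone wells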
[11] = reduction of Shn3 3'UTR-driven luciferase in osteoblasts – cell-based, Clone20 osteoblasts, firefly luciferase, cherry-picked, dose response (AID 624132); assay type: functional;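 also: firefly luciferase luminescence from reporter carrying the Shn3 3'UTR in osteoblasts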
[12] = non-specific 3'UTR reporter inhibition in Clone20-Shn3RL – cell-based, Renilla luciferase, cherry-picked, counter-screen for Shn3 inhibitor project, dose response (AID 624133); assay type: functional
[13] = blockers of HIV-1 envelope-mediated cell-cell fusion – cherry-pick, dose response (AID 652057); assay type: functional, cell-based
[14] = blockers of HIV-1 ZM109 envelope-driven cell-cell fusion – HeLa effector, CEM target cells, luciferase, cherry-pick, dose response (AID 652058); assay type: functional, cell-based;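 also: luciferase signal from HIV-1 Env mediated cell-cell fusion of effector and target cells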
[15] = HIV-1 AD8 envelope cell-cell fusion blockers – cherry-pick, dose response (AID 652062); assay type: functional, cell-based;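 also: luciferase signal from cell-cell fusion driven by HIV-1 clade B AD8 Env; potency is for inhibitors of fusion seen as a drop in luminescence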
[16] = P. falciparum Dd2 growth inhibitors, dose response, SYBR Green, cherry-picked samples (AID 1159567); assay type: functional, cell-based

Sequence of Luciferin 4-monooxygenase (P08659 whole entry): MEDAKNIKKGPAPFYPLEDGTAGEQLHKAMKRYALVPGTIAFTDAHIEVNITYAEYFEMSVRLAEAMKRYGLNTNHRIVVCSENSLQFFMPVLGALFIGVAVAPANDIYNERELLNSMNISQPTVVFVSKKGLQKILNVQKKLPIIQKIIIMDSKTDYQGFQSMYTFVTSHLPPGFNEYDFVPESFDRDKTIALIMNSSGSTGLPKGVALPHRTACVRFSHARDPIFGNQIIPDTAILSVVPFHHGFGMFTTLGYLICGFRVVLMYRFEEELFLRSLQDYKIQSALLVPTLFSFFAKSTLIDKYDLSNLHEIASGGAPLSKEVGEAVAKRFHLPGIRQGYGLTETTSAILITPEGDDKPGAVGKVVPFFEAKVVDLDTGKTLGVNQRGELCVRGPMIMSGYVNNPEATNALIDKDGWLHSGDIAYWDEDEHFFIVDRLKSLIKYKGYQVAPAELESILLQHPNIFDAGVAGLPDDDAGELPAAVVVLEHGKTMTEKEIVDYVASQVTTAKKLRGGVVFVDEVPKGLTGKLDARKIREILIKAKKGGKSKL
Sequence of Cytochrome P450 3A4 (P08684 whole entry): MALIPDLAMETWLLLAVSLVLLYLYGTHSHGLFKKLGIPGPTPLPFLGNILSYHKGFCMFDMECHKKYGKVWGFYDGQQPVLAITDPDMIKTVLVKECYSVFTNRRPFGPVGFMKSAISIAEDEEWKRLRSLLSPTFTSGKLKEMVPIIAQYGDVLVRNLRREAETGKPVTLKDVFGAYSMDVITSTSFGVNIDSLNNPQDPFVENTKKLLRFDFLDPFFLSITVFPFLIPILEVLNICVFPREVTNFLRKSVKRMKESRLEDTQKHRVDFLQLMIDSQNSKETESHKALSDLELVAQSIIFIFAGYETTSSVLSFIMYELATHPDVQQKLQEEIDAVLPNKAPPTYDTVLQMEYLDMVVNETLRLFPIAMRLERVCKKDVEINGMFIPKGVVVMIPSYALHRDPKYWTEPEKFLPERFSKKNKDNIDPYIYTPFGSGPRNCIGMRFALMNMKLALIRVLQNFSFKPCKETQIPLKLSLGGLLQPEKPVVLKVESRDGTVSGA
Sequence of Cytochrome P450 2C19 (P33261 whole entry): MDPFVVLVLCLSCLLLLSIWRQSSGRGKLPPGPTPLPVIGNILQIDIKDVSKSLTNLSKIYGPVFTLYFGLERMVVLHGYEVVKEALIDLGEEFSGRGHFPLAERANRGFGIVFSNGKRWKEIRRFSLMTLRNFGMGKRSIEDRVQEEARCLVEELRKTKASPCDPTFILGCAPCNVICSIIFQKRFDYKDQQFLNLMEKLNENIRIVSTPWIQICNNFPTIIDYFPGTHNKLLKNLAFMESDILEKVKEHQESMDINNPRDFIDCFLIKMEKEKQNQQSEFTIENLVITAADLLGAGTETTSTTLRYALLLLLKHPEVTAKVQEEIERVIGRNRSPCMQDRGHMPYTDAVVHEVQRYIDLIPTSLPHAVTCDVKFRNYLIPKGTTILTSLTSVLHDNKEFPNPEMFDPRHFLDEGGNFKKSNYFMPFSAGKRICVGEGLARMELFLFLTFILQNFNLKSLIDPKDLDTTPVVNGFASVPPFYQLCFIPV

Question: For `O=c1c2ccccc2ccc2ccccc12`, which IC50 [1] is on record?
Answer: 21.3 µM (active)

Question: Which CC50 [2] does the source give for `Cc1ccc(S(=O)(=O)N=C(N)Nc2nc(C)c3ccc(C)cc3n2)cc1` here?
Answer: > 50 µM (active)

Question: With `COc1cccc(NC(=O)c2cccs2)c1` as the compound, how does the EC50 [3] read?
Answer: > 112 µM (not active)

Question: And the EC50 [4]?
Answer: > 112 µM (not active)

Question: What does the source list for `O=C(/C=C/c1ccco1)NCCCN1CCN(CCCNC(=O)/C=C/c2ccco2)CC1`?
Answer: EC50 [3]: > 112 µM (not active); EC50 [4]: > 112 µM (not active)

Question: For `O=C(C1CC(c2ccc(F)cc2)=NO1)N1CCCCC1` (configuration not stated), which EC50 [5] is on record?
Answer: 5.56 µM (active)

Question: What about the EC50 [6] of the same compound?
Answer: 33.4 µM (active)

Question: Which results are given for `O=C(Nc1ccc(Br)cc1)c1ccc(CSC2=NCCS2)cc1`?
Answer: EC50 [5]: 3.81 µM (active); EC50 [6]: 99.7 µM (active); AC50 [7]: 11.2 µM (inconclusive); AC50 [8]: 3.55 µM (inconclusive)

Question: For `O=C(CSc1nnc(COc2ccc(Cl)cc2)o1)NC1CC2CCC1C2` (configuration not stated), which IC50 [1] is on record?
Answer: > 100 µM (inactive)

Question: For `COc1ccc2cc(N3CCCC3=O)ccc2c1`, which IC50 [1] is on record?
Answer: > 100 µM (inactive)

Question: For `c1ccc2c(C[C@@H]3CNCCN3CCC34CC5CC(CC(C5)C3)C4)cccc2c1`, which IC50 [9] is on record?
Answer: > 20 µM (inactive)

Question: Which IC50 [1] does the source give for `C=C1CCC[C@]2(C)C[C@H]3OC(=O)C(CNCCN(C)C)[C@H]3CC12` (some centres not stated) here?
Answer: > 100 µM (inactive)

Question: For `Cc1sc2ncnc(N3CCN(S(=O)(=O)c4ccccc4)CC3)c2c1C`, which AC50 [10] is on record?
Answer: 4.3 µM (active)

Question: And the AC50 [11]?
Answer: 2.3 µM (active)

Question: What about the AC50 [12] of the same compound?
Answer: 3.43 µM (active)

Question: With `CO[C@H]1CN(C)C(=O)c2ccc(NC(=O)C3CCC3)cc2OC[C@H](C)N(CC2CCCCC2)C[C@@H]1C` as the compound, how does the AC50 [13] read?
Answer: 0.592 µM (active)

Question: What about the AC50 [14] of the same compound?
Answer: 1.25 µM (active)

Question: And the AC50 [15]?
Answer: 1.83 µM (active)

Question: For `O=C(CCN1CCCCCC1)Nc1ccccc1F`, which IC50 [1] is on record?
Answer: > 100 µM (inactive)

Question: With `C[C@H](CO)N1C[C@H](C)[C@H](CN(C)S(=O)(=O)c2cccs2)Oc2ccc(NC(=O)Nc3ccccc3)cc2CC1=O` as the compound, how does the AC50 [13] read?
Answer: 0.395 µM (active)

Question: And the AC50 [14]?
Answer: 0.579 µM (active)

Question: What about the AC50 [15] of the same compound?
Answer: 1.34 µM (active)

Question: With `O=C(c1ccccc1F)N1C[C@H]2[C@@H](c3ccccc31)[C@@H](CO)N2C(=O)c1ccc(F)cc1` as the compound, how does the AC50 [16] read?
Answer: 35.2 µM (active)

Question: For `Cc1cc(N2CCOCC2)nc2ccc(NC(=O)C3CCC(C)CC3)cc12` (configuration not stated), which IC50 [1] is on record?
Answer: > 100 µM (inactive)

Question: Which AC50 [16] does the source give for `CO[C@@H]1CN(C)C(=O)c2ccc(NC(=O)c3ccc(F)cc3)cc2OC[C@@H](C)N(C(=O)c2ccc(F)cc2)C[C@@H]1C` here?
Answer: 4.29 µM (active)

Question: With `CCCN(C)C[C@H]1Oc2ncc(C#Cc3ccccc3OC)cc2C(=O)N([C@H](C)CO)C[C@H]1C` as the compound, how does the AC50 [16] read?
Answer: 3.28 µM (active)

Question: With `CCCNC(=O)N1[C@H](CO)[C@H](c2ccc(-c3ccc(C#N)cc3)cc2)[C@@H]1CNC` as the compound, how does the AC50 [16] read?
Answer: 11.5 µM (active)

Question: With `C/C=C/c1ccc2c(c1)[C@H]1[C@H](CCN1S(=O)(=O)c1cccc(F)c1)[C@@H](CO)N2` as the compound, how does the AC50 [16] read?
Answer: 4.13 µM (active)
